Reference: US12479820B2, “Pyridin-3-yl derivatives” (Idorsia Pharmaceuticals Ltd, priority 2019, dated 2025)

Molecular target: T1, human LPA1 receptor (Homo sapiens, UniProt Q92633)
T1 construct: TEV protease site; Gal4-VP16 transcription factor; host or cells: Tango EDG2-bla U2OS cells
Assay: Beta-arrestin recruitment assay to determine IC50 values for human LPAR1
Assay type: cell-based
Details: Tango EDG2-bla U2OS cells, antagonist assay, LPA 18:1 500 nM final
From the text: Beta-Arrestin Recruitment Assay to Determine IC50 Values for Human LPAR1
The Tango™ EDG2-bla U2OS cells are obtained from Invitrogen. These cells contain the human LPA1 receptor cDNA linked to a TEV protease site and a Gal4-VP16 transcription factor integrated into the Tango™ GPCR-bla U2OS parental cell line. This parental cell line stably expresses a beta-arrestin/TEV protease fusion protein and the beta-lactamase (bla) reporter gene under the control of a UAS response element. Upon LPA (agonist) binding, LPA1 receptor gets activated, leading to arrestin-protease recruitment and proteolytic release of the transcription factor: The transcription factor then regulates transcription of a beta-lactamase reporter construct, which is measured upon addition of the live-cell substrate.
10′000 Tango™ EDG2-bla U2OS cells are seeded in a 384-well black with clear bottom plate in 30 μl Freestyle 293 Expression Medium (Invitrogen) and incubated for 20 h at 37° C., 5% CO2. For antagonist assays, 5 μl of test compound (dilution series in DMSO/Freestyle 293 Expression medium/0.1% fatty acid free BSA (Sigma)) or buffer control are added per well and incubated for 30 min at 37° C., 5% CO2. 5 μl of LPA 18:1 (500 nM final) (solution in Freestyle 293 Expression medium/0.1% fatty acid free BSA (Sigma)) are added per well and the plate incubated for 16 h at 37° C., 5% CO2. Cells are then loaded with LiveBLAzer-FRET™ B/G Substrate (Invitrogen) for 2 h in the dark and the fluorescence emission at 460 nm and 530 nm is measured using the SynergyMx reader (BioTek). Following the background subtraction from both channels, the 460/530 nm emission ratio for each well is calculated, then plotted and fitted to a 4-parameter logistic function to obtain IC50 values. IC50 is the concentration of antagonist inhibiting 50% of the maximal response.

T1 sequence (Q92633 whole entry, the tested form may be a part): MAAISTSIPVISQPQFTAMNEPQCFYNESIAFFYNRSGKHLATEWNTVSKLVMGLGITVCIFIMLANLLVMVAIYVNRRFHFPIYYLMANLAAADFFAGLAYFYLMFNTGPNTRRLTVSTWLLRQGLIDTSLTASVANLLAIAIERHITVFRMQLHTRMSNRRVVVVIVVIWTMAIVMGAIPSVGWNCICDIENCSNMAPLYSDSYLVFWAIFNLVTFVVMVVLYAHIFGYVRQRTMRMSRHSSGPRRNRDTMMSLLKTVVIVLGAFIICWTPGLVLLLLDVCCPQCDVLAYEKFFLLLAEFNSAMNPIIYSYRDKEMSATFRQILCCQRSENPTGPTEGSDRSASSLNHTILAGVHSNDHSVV

IC50 [nM] | Compound
56 | COc1cc(Cl)ncc1NC(=O)C1(c2ccccc2C(C)C)CN(S(=O)(=O)NCCO)C1 [Example 21-21, N-(6-chloro-4-methoxypyridin-3-yl)-1-(N-(2-hydroxyethyl)sulfamoyl)-3-(2-isopropylphenyl)azetidine-3-carboxamide]
22 | COc1cc(Cl)ncc1NC(=O)C1(c2ccccc2C(C)C)CN(S(=O)(=O)NC2CC2)C1 [Example 21-13, N-(6-chloro-4-methoxypyridin-3-yl)-1-(N-cyclopropylsulfamoyl)-3-(2-isopropylphenyl)azetidine-3-carboxamide]
21 | CCOc1cc(Cl)ncc1NC(=O)C1(c2ccccc2C(C)C)CN(CCC(C)(C)C(=O)O)C1 [Example 18-19, 4-(3-((6-chloro-4-ethoxypyridin-3-yl)carbamoyl)-3-(2-isopropylphenyl)azetidin-1-yl)-2,2-dimethylbutanoic acid]
16 | COc1cc(Cl)ncc1NC(=O)C1(c2nc(F)ccc2C(C)C)CN(S(N)(=O)=O)C1 [Example 21-17, N-(6-chloro-4-methoxypyridin-3-yl)-3-(6-fluoro-3-isopropylpyridin-2-yl)-1-sulfamoylazetidine-3-carboxamide]
3 | COc1cc(Cl)ncc1NC(=O)C1(c2ccccc2C(C)C)CCN(c2ncncc2F)CC1 [Example 24-17, N-(6-chloro-4-methoxypyridin-3-yl)-1-(5-fluoropyrimidin-4-yl)-4-(2-isopropylphenyl)piperidine-4-carboxamide]
136 | COc1cc(Cl)ncc1NC(=O)C1(c2ccccc2C(C)C)CN(C[C@@H]2COC(C)(C)O2)C1 [Example 18-11, (R)-N-(6-chloro-4-methoxypyridin-3-yl)-1-((2,2-dimethyl-1,3-dioxolan-4-yl)methyl)-3-(2-isopropylphenyl)azetidine-3-carboxamide]
128 | COc1cc(Cl)ncc1NC(=O)C1(c2ccccc2C(C)C)CN(CC(=O)O)C1 [Example 18-6, 2-(3-((6-chloro-4-methoxypyridin-3-yl)carbamoyl)-3-(2-isopropylphenyl)azetidin-1-yl)acetic acid]
72 | CCOc1cc(Cl)ncc1NC(=O)C1(c2ccccc2C(C)C)CN(C(=O)CC(C)(C)C(=O)OC)C1 [Example 19-21, methyl 4-(3-((6-chloro-4-ethoxypyridin-3-yl)carbamoyl)-3-(2-isopropylphenyl)azetidin-1-yl)-2,2-dimethyl-4-oxobutanoate]
8 | COc1cc(Cl)ncc1NC(=O)C1(c2ccccc2C(C)C)CN(c2cc(C)ncn2)C1 [Example 24-14, N-(6-chloro-4-methoxypyridin-3-yl)-3-(2-isopropylphenyl)-1-(6-methylpyrimidin-4-yl)azetidine-3-carboxamide]
5 | COc1cc(Cl)ncc1NC(=O)C1(c2ccccc2C(C)C)CN(c2ccncn2)C1 [Example 24-11, N-(6-chloro-4-methoxypyridin-3-yl)-3-(2-isopropylphenyl)-1-(pyrimidin-4-yl)azetidine-3-carboxamide]
52 | COc1cc(Cl)ncc1NC(=O)C1(c2ccccc2C(C)C)CN(C(=O)Cn2cc(CO)nn2)C1 [Example 19-9, N-(6-chloro-4-methoxypyridin-3-yl)-1-(2-(4-(hydroxymethyl)-1H-1,2,3-triazol-1-yl)acetyl)-3-(2-isopropylphenyl)azetidine-3-carboxamide]
142 | CCOc1cc(Cl)ncc1NC(=O)C1(c2ccccc2C(C)C)CN(CCC(C)(C)C(=O)OC)C1 [Example 18-18, methyl 4-(3-((6-chloro-4-ethoxypyridin-3-yl)carbamoyl)-3-(2-isopropylphenyl)azetidin-1-yl)-2,2-dimethylbutanoate]
36 | COc1cc(C)ncc1NC(=O)C1(c2ccccc2C(C)C)CNC1 [Example 11, 3-(2-isopropylphenyl)-N-(4-methoxy-6-methylpyridin-3-yl)azetidine-3-carboxamide]
419 | COc1cc(Cl)ncc1NC(=O)C1(c2nc(F)ccc2C(C)C)CNC1 [Example 16, N-(6-chloro-4-methoxypyridin-3-yl)-3-(6-fluoro-3-isopropylpyridin-2-yl)azetidine-3-carboxamide]
74 | COc1cc(Cl)ncc1NC(=O)C1(c2ccccc2C(C)C)CN(C(=O)N(C)C)C1 [Example 22-15, N^3-(6-chloro-4-methoxypyridin-3-yl)-3-(2-isopropylphenyl)-N1,N1-dimethylazetidine-1,3-dicarboxamide]
204 | COc1cc(Cl)ncc1NC(=O)C1(c2ccccc2C(C)C)CN(C(=O)NCCC(=O)O)C1 [Example 22-14, 3-(3-((6-chloro-4-methoxypyridin-3-yl)carbamoyl)-3-(2-isopropylphenyl)azetidine-1-carboxamido)propanoic acid]

IC50 [nM] | Compound
55 | COc1cc(Cl)ncc1NC(=O)C1(c2ccccc2C(C)C)CN(c2c(O)c(=O)c2=O)C1 [Example 27, N-(6-chloro-4-methoxypyridin-3-yl)-1-(2-hydroxy-3,4-dioxocyclobut-1-en-1-yl)-3-(2-isopropylphenyl)azetidine-3-carboxamide]
2 | COc1cc(Cl)ncc1NC(=O)C1(c2ccccc2C(C)C)CN(c2ccnc(C)c2F)C1 [Example 24-3, N-(6-chloro-4-methoxypyridin-3-yl)-1-(3-fluoro-2-methylpyridin-4-yl)-3-(2-isopropylphenyl)azetidine-3-carboxamide]
48 | COc1cc(F)ncc1NC(=O)C1(c2ccccc2C(C)C)CNC1 [Example 1, N-(6-fluoro-4-methoxypyridin-3-yl)-3-(2-isopropylphenyl)azetidine-3-carboxamide]
9 | COc1cc(Cl)ncc1NC(=O)C1(c2ccccc2C(C)C)CN(C(=O)NC(C)C)C1 [Example 22-4, N3-(6-chloro-4-methoxypyridin-3-yl)-N1-isopropyl-3-(2-isopropylphenyl)azetidine-1,3-dicarboxamide]
347 | COc1cc(Cl)ncc1NC(=O)C1(c2ccccc2C(C)C)CN(CCCc2nnn[nH]2)C1 [Example 18-5, 1-(3-(1H-tetrazol-5-yl)propyl)-N-(6-chloro-4-methoxypyridin-3-yl)-3-(2-isopropylphenyl)azetidine-3-carboxamide]
5 | COc1cc(Cl)ncc1NC(=O)C1(c2ccccc2C(C)C)CN(C(=O)NC2CC2)C1 [Example 22-5, N3-(6-chloro-4-methoxypyridin-3-yl)-N1-cyclopropyl-3-(2-isopropylphenyl)azetidine-1,3-dicarboxamide]
91 | COc1cc(Cl)ncc1NC(=O)C1(c2ccccc2C(C)C)CN(c2nc(C(=O)O)co2)C1 [Example 24-26, 2-(3-((6-chloro-4-methoxypyridin-3-yl)carbamoyl)-3-(2-isopropylphenyl)azetidin-1-yl)oxazole-4-carboxylic acid]
2 | COc1cc(Cl)ncc1NC(=O)C1(c2ccccc2C(C)C)CN(c2ncncc2F)C1 [Example 24-10, N-(6-chloro-4-methoxypyridin-3-yl)-1-(5-fluoropyrimidin-4-yl)-3-(2-isopropylphenyl)azetidine-3-carboxamide]
5 | COc1cc(Cl)ncc1NC(=O)C1(c2cc(F)ccc2C(C)C)CN(S(N)(=O)=O)C1 [Example 21-15, N-(6-chloro-4-methoxypyridin-3-yl)-3-(5-fluoro-2-isopropylphenyl)-1-sulfamoylazetidine-3-carboxamide]
27 | COc1cc(Cl)ncc1NC(=O)C1(c2ccccc2C(C)C)CN(CCC(C)(C)C(=O)O)C1 [Example 18-17, 4-(3-((6-chloro-4-methoxypyridin-3-yl)carbamoyl)-3-(2-isopropylphenyl)azetidin-1-yl)-2,2-dimethylbutanoic acid]
12 | COc1cc(Cl)ncc1NC(=O)C1(c2ccccc2C(C)C)CCNCC1 [Example 10, N-(6-chloro-4-methoxypyridin-3-yl)-4-(2-isopropylphenyl)piperidine-4-carboxamide]
41 | CC(C)c1ccccc1C1(C(=O)Nc2cnc(Cl)cc2OC2CC2)CNC1 [Example 7, N-(6-chloro-4-cyclopropoxypyridin-3-yl)-3-(2-isopropylphenyl)azetidine-3-carboxamide]
28 | COc1cc(Cl)ncc1NC(=O)C1(c2ccccc2C(C)C)CN(C[C@@H](O)CO)C1 [Example 18-12, (R)-N-(6-chloro-4-methoxypyridin-3-yl)-1-(2,3-dihydroxypropyl)-3-(2-isopropylphenyl)azetidine-3-carboxamide]
1 | CC(C)Oc1cc(Cl)ncc1NC(=O)C1(c2ccccc2C(C)C)CN(S(N)(=O)=O)C1 [Example 21-4, N-(6-chloro-4-isopropoxypyridin-3-yl)-3-(2-isopropylphenyl)-1-sulfamoylazetidine-3-carboxamide]
12 | CNC(=O)N1CC(C(=O)Nc2cnc(Cl)cc2OC)(c2ccccc2C(C)C)C1 [Example 22-2, N3-(6-chloro-4-methoxypyridin-3-yl)-3-(2-isopropylphenyl)-N1-methylazetidine-1,3-dicarboxamide]
